Reference: patent US9945845B2, “Methods of screening using amphibians” (priority 2009, dated 2018)
Where a name gives a salt, the structure may show the parent alone. Read-outs that look alike come from different tables or passages of the source.

Tested on: Xenopus embryos
Conditions: for Type of edema Ventral: ‡ = edemas also detected in the gut; for Type of edema Periocular: * = causing bulging eyes, # = bilateral, causing narrow-set eyes
Procedure: 10-μl aliquots of the chemicals were transferred from the mother plates with a liquid handling robot (Aquarius, Tecan) into 96-well tissue culture plates to generate diluted stock plates (2 mM in DMSO; 50 μl final volume). […] Once embryos reached stage 31 (37 hpf), 10-μl aliquots of the diluted chemicals were added to the wells. […] Negative control wells contained embryos in screening medium and 0.1×MMR only. Embryos were treated with the chemicals in a humidified incubator at 23° C. over a timeframe of 4 days. Embryos were manually scored for the presence of edema or other morphological phenotypes using a teaching dissecting microscope (SV6; Carl Zeiss). Two investigators performed separately the scoring daily at stages 39 (56 hpf), 41 (76 hpf), 45 (98 hpf), and 47 (120 hpf). Dead embryos were removed and 100 μl of water was added daily to each well to compensate for fluid evaporation. […] For imaging at the end of the experiments. Xenopus tadpoles were anesthetized with 0.05% tricaine (Sigma #A5040) in 0.1×MMR. Images were captured using a stereomicroscope (SteREO Lumar V12; Carl Zeiss) equipped with a digital camera (AxioCam Color; Carl Zeiss).
Xenopus late tailbud embryos at stage 31 (37 hpf) were selected for compound treatment. […] Embryos were arrayed into 48-well dishes (five per well) and treated with test compounds at a concentration of 20 μM in the presence of 1% DMSO. […] All 48-well dishes also contained replicates of negative controls (1% DMSO). Embryos were monitored daily over a period of four days for edema formation. In addition, drug-induced lethality and other externally visible phenotypes were scored. On average, 320 compounds were screened per week.

[1] = compounds causing lethality, 20 μM, 1% DMSO, treatment from stage 31, Nieuwkoop & Faber stage
[2] = compounds causing cytotoxicity, 20 μM, 1% DMSO, treatment from stage 31, Nieuwkoop & Faber stage
[3] = compounds causing edema, 20 μM, 1% DMSO, treatment from stage 31, scored to stage 47
[4] = onset of edema, 20 μM, 1% DMSO, treatment from stage 31, Nieuwkoop & Faber stage
[5] = embryonic stage, — = no stage of lethality given
[6] = onset of pigmentation defects, 20 μM, 1% DMSO
[7] = compounds causing other phenotypic defects, 20 μM, scored to stage 47
[8] = onset of other phenotypic defects, 20 μM, 1% DMSO

## CC(C)Cc1ccc(C(C)C(=O)O)cc1 (racemic) [(±)-Ibuprofen, alpha-Methyl-4-(isobutyl)phenylacetic acid]
Xenopus laevis, in vivo
  Lethality (NF): 45 NF

## O=C(O)CCCCC1CCSS1 (racemic) [(±)-alpha-Lipoic Acid]
Embryonic stage
  Type of edema Pericordial: 39 embryonic stages according to Nieuwkoop and Faber (NF)
  Type of edema Pronephric: 42 embryonic stages according to Nieuwkoop and Faber (NF)

## CCCCCCCCCCCCCCCCCC(=O)OC(CC(=O)O)C[N+](C)(C)C.[Cl-] (racemic) [DL-Stearoylcarnitine chloride]
[1]
  Lethality (NF): 41 NF

## CCCCCCCCCCCCCCCC(=O)OC(CC(=O)O)C[N+](C)(C)C.[Cl-] (racemic) [Palmitoyl-DL-Carnitine chloride]
[2]
  Lethality (NF): 32 NF

## CCCCCCCCCCCCCCCC(=O)NCC(COP(=O)([O-])OCC[N+](C)(C)C)OCC (racemic) [rac-2-Ethoxy-3-hexadecanamido-1-propylphosphocholine]
[2]
  Lethality (NF): 32 NF

## CCCCCCCCCCCCCCCCCC(=O)NCC(COP(=O)([O-])OCC[N+](C)(C)C)OCC (racemic) [rac-2-Ethoxy-3-octadecanamido-1-propylphospocholine]
[2]
  Lethality (NF): 32 NF

## O.c1cnc2c(c1)ccc1cccnc12 [1,10-Phenanthroline monohydrate]
[3]
  Lethality (NF): 46 NF
[4]
  Onset (NF): 39/40

## O.c1cnc2c(c1)ccc1cccnc12 [1,10-Phenenthroline monohydrate]
Embryonic stage
  Type of edema Pericordial: 39/40
  Type of edema Ventral: 41/42
[5]
  Lethality: 46 embryonic stages according to Nieuwkoop and Faber (NF)

## S=C(Nc1ccccc1)Nc1nccs1 [1-Phenyl-3-(2-thiazolyl)-2-thiourea]
[6]
  Onset (NF): 33/34

## COC1=C(OC)C(=O)c2ccccc2C1=O [2,3-Dimethoxy-1,4-naphthoquinone]
[7]
  Lethality (NF): 42 NF

## C[N+](C)(C)CCC(=O)c1cccc2ccccc12.[I-] [2-(alpha-Naphthoyl)ethyltrimethylammonium iodide]
[2]
  Lethality (NF): 32 NF

## N#CCCN.N#CCCN.O=C(O)/C=C/C(=O)O [3-Aminopropionitrile fumarate]
[8]
  Onset (NF): 46 NF

## O=C(O)c1cc([N+](=O)[O-])ccc1NCCCc1ccccc1 [5-Nitro-2-(3-phenylpropylamino)benzoic acid]
[2]
  Lethality (NF): 32 NF

## O=c1[nH]c2ccccc2c2ccccc12 [6(5H-Phenanthridinone, 6(5H)-Phenanthridinone]
[3]
  Lethality (NF): 47 NF
Embryonic stage
  Type of edema Pericordial: 45 embryonic stages according to Nieuwkoop and Faber (NF)
  Type of edema Periocular: 45 embryonic stages according to Nieuwkoop and Faber (NF)
  Type of edema Ventral: 45 embryonic stages according to Nieuwkoop and Faber (NF)
[5]
  Lethality: 47 embryonic stages according to Nieuwkoop and Faber (NF)

## CC1=C(/C=C/C(C)=C/C=C/C(C)=C\C(=O)O)C(C)(C)CCC1 [13-cis-retinoic acid]
[3]
  Lethality (NF): 46 NF
Embryonic stage
  Type of edema Pronephric: 45 embryonic stages according to Nieuwkoop and Faber (NF)
  Type of edema Ventral: 41/42
Embryonic stage, + = cerebral edema extending dorso-anteriorly and displacing the eyes
  Type of edema Cerebral: 45+ embryonic stages according to Nieuwkoop and Faber (NF)
[5]
  Lethality: 46 embryonic stages according to Nieuwkoop and Faber (NF)
[4]
  Onset (NF): 41/42

## CC[C@@H]1Cc2cc(O)ccc2C2=C1c1ccc(O)cc1C[C@H]2CC [(5R, 11R)-5,11-Diethyl-5,6,11,12-tetrahydro-2,8-chrysenediol]
[1]
  Lethality (NF): 41 NF

## CN[C@@H](C)[C@H](O)c1ccccc1.CN[C@@H](C)[C@H](O)c1ccccc1.O=S(=O)(O)O [(-)-Ephedrine hemisulfate]
[6]
  Onset (NF): 33/34

## CS(=O)(=O)O.Cc1c(C(=O)c2cccc3ccccc23)c2cccc3c2n1[C@H](CN1CCOCC1)CO3 [(R)-(+)-WIN 55,212-2 mesylate, (R)-(+)-[2,3-Dihydro-5-methyl-3[(morpholinyl)methyl]pyrrolo[1,2,3-de]-1,4-benzoxazinyl]-(1-naphthalenyl)methanone mesylate]
[2]
  Lethality (NF): 32 NF

## CC[C@@]1(O)C(=O)OCc2c1cc1n(c2=O)Cc2cc3ccccc3nc2-1 [(S)-(+)-Camptothecin]
[7]
  Lethality (NF): 41/42
[8]
  Onset (NF): 39 NF

## CCn1cc(C(=O)O)c(=O)c2ccc(Cc3ccccc3)nc21 [Amfonelic acid, 7-Benzyl-1-ethyl-1,4-dihydro-4-oxo-1,8-naphthyridine-3-carboxylic acid]
[6]
  Onset (NF): 33/34

## CCNC(=O)N1CCN(CCCC(c2ccc(F)cc2)c2ccc(F)cc2)CC1.Cl [Amperozide hydrochloride, 4-[4,4-bis(4-Fluorophenyl)butyl]-N-ethyl-1-piperazinecarboxamide hydrochloride]
Embryonic stage
  Type of edema Pericordial: 41/42
  Type of edema Periocular: 45 embryonic stages according to Nieuwkoop and Faber (NF)
  Type of edema Ventral: 41/42
[4]
  Onset (NF): 41/42

## CN1CCc2cccc3c2[C@H]1Cc1ccc(O)c(O)c1-3 [Apomorphine hydrochloride hemihydrate, 10,11-Dihydroxyaporphine hydrochloride hemihydrate]
[6]
  Onset (NF): 33/34

## CC(C)(C)c1ccc(S(=O)(=O)/C=C/C#N)cc1 [Bay 11-7085, (E)-3-(4-t-Butylphenylsulfortyl)-2-propenenitrile]
[2]
  Lethality (NF): 32 NF

## C[C@H]1CCC/C=C/[C@@H]2C[C@H](O)C[C@H]2[C@H](O)/C=C/C(=O)O1 [Brefeldin A]
[2]
  Lethality (NF): 33/34

## Nc1nc2ccc(Cl)cc2c2nc(-c3ccco3)nn12 [CGS -15943]
Embryonic stage
  Type of edema Pericordial: 41/42
  Type of edema Pronephric: 45 embryonic stages according to Nieuwkoop and Faber (NF)
  Type of edema Ventral: 45 embryonic stages according to Nieuwkoop and Faber (NF)
In vivo
  Lethality: 46 embryonic stages according to Nieuwkoop and Faber (NF)

## Nc1nc2ccc(Cl)cc2c2nc(-c3ccco3)nn12 [CGS-15943, 9-Chloro-2-(2-furyl)[1,2,4]triazolo[1,5-c]quinazolin-5-amine]
Xenopus laevis, in vivo
  Lethality (NF): 46 NF
In vivo
  Onset (NF): 41/42

## O=C(/C=C/c1ccc(O)c(O)c1)OCCc1ccccc1 [Caffeic acid phenethyl ester]
Compounds causing pigmentation defects, 20 μM, scored to stage 47
  Lethality (NF): 39 NF
[6]
  Onset (NF): 33/34

## CNc1ccc2oc(C[C@H]3O[C@@]4(CC[C@H]3C)O[C@H]([C@H](C)C(=O)c3ccc[nH]3)[C@H](C)C[C@H]4C)nc2c1C(=O)O [Calcimycin]
[2]
  Lethality (NF): 32 NF

## CC1(C(=O)O)C2CCC(O2)C1(C)C(=O)O (centres unmarked) [Cantharidic Acid]
[2]
  Lethality (NF): 32 NF

## C[C@@]12C(=O)OC(=O)[C@]1(C)[C@H]1CC[C@@H]2O1 [Cantharidin]
[2]
  Lethality (NF): 32 NF

## CN1CCC[C@@H]1CCO[C@](C)(c1ccccc1)c1ccc(Cl)cc1 [Clemastine fumarate]
Embryonic stage
  Type of edema Pericordial: 46 embryonic stages according to Nieuwkoop and Faber (NF)
  Type of edema Periocular: 46 embryonic stages according to Nieuwkoop and Faber (NF)
  Type of edema Ventral: 45 embryonic stages according to Nieuwkoop and Faber (NF)

## S=C(OC1CC2CC1C1CCCC21)[S][K] [D-609 potassium, Carbonodithioic acid, O-(octahydro-4,7-methano-1H-inden-5-yl) ester potassium]
[2]
  Lethality (NF): 33/34

## O=c1c2ccccc2[nH]c(=S)n1CCN1CCC(=C(c2ccc(F)cc2)c2ccc(F)cc2)CC1 [Diacylglycerol Kinase Inhibitor II]
Embryonic stage
  Type of edema Pronephric: 45 embryonic stages according to Nieuwkoop and Faber (NF)
  Type of edema Periocular: 46 embryonic stages according to Nieuwkoop and Faber (NF)
  Type of edema Ventral: 41/42
[4]
  Onset (NF): 41/42

## Cc1nc2sccn2c(=O)c1CCN1CCC(=C(c2ccccc2)c2ccc(F)cc2)CC1 [Diacylglycerol kinase inhibitor I]
Embryonic stage
  Type of edema Periocular: 45 embryonic stages according to Nieuwkoop and Faber (NF)
  Type of edema Ventral: 45 embryonic stages according to Nieuwkoop and Faber (NF)
[4]
  Onset (NF): 45 NF

## c1ccc2c(c1)[I+]c1ccccc1-2 [Diphenyleneiodonium chloride, [1,1′-Biphenyl]-2,2′-diyiodonium chloride]
Xenopus laevis, in vivo
  Lethality (NF): 42 NF

## CCCCCCCCCCCCCCCCCCOCC(COP(=O)([O-])OCC[N+](C)(C)C)OC (centres unmarked) [ET-18-OCH3, 3,5,9-Trioxa-4-phosphaheptacosan-1-aminium]
[1]
  Lethality (NF): 37/38

## O=c1c2ccccc2[se]n1-c1ccccc1 [Ebselen, 2-Phenyl-1,2-benzisoselenazol-3(2H)-one]
[2]
  Lethality (NF): 32 NF

## COC(=O)c1c(C)[nH]c(C)c1C(=O)c1ccccc1Cc1ccccc1 [FPL 64176, 2,5-Dimethyl-4-[2-(phenylmethyl)benzoyl]-1H-pyrrole-3-carboxylic acid methyl ester]
[1]
  Lethality (NF): 40 NF

## CC(C)=CCCC(C)=CCCC(C)=CCSc1ccccc1C(=O)O [Farnesylthiosalicylic acid]
[2]
  Lethality (NF): 32 NF
